These results are taken from patent EP2769723A1, “Compounds for use in inhibiting HIV capsid assembly” (priority 2013, dated 2014).

Counter-ions that a name gives are not always drawn. Like-named read-outs stand apart in the source and are kept apart here.

Common to all, as to format: cell-based
The subject of data set [1] is wild type NL4.3 HIV-1. Briefly: Tissue culture infectivity test, TZM titration of supernatants from infected TZM cells. The following applies: Human immunodeficiency virus 1, TZM. As for the experimental part: Hits selected in the YFP-screen were further evaluated in the tissue culture experiments with cells infected with the wild type NL4.3 HIV-1. The virus for infection was obtained from co-culture of MT4 cells. The MT4 cells co-culture was synchronized for one week and then used for the infection of fresh MT 4 cells. 48 hrs post-infection was the culture supernatant harvested, cleared by the filtration through […] filter and stored in -80 °C in 1 ml aliquots. Amount of virus was quantified by enzyme-linked immuno sorbent assay (ELISA) with antibodies against HIV-1 CA (3 ng of CA/ml) and blue cell assay (1x10^5 IU/ml), which gives 3 x 10^4 IU/ng of CA.
For compounds testing the TZM cells were seeded on 96-well plate in the density 5 x 10^3 cells per well. The culture media was aspirated approx. 16 hrs later and cells were infected by the wild type NLA.3 HIV-1 by addition of 50J..il of prepared virus stock diluted with 50 µl of complete DMEM. The compounds were added twice to ensure that there are not any preassembled viruses present at the time of their addition. Compounds were first added 8 hrs post-infection and then 24 hrs later. In both cases the old culture media were replaced by 100 µl of fresh complete DMEM prior to the compounds addition. Different compounds concentrations were tested, but the DMSO concentration never exceeded 1 % DMSO. As controls were used cells treated only with 1 % DMSO and cells treated with 0,1 µM Lopinavir (HIV-1 protease inhibitor). Supernatant was harvested 24 hrs after the second compound addition, i.e. 56 hrs post-infection. Harvested supernatants were immediately titrated on the fresh TZM cells in aim to perform the infectivity assay (TZM titration), or inactivated by addition of Triton X-100 to the final concentration 0.025 % for further ELISA analysis.
TZM titration was performed on the cells seeded day before on 96-well plate in the density 5 x 10^3 cells per well. The analysis was performed for each compound concentration at three different dilutions and in duplicates. The culture media was aspired and cells were lysed 48 hrs post-infection by addition of 100 µl of SteadyGlo luciferase substrate (Promega) diluted 1 : 1 by complete DMEM. The luminescence signal was measured on Luminoskan Ascent (Thermo Labsystems) after the transfer of 80 µl of lysate to the flat bottom white polystyrene assay plates (Costar).

The subject of data set [2] is TZM cells. Description: in vitro. The following applies: Table 4; non-cytotoxic when values higher than 80 % of 1 % DMSO treated cells. As for the experimental part:
(§1) Cytotoxicity of selected hits tested in the assay with NL4.3 infected cells was determined by MTT test. TZM cells were seeded on the previous day on 96-well plate in the density 5 x 10^3 cells per well. The tested compounds were added in different concentrations, but the DMSO concentration never exceeded 1 % DMSO. As controls were used cells treated only with 1 % DMSO (non-toxic concentration) and cells treated with 5 % DMSO (toxic concentration). 20 µl of the CellTiter 96 Aqueous One substrate (Promega) was added to the 100 µl of culture media 48 hrs after the compounds addition and the color development was quantified 4 hrs later by measuring the absorbance at 490 nm on Saphire reader. Compounds were consider non-cytotoxic (at given concentrations) when the measured values were higher than 80 % of the value of 1 % DMSO treated cells.

Data set [3] in a line: in vitro. The following applies: human, Table 4; non-cytotoxic when values higher than 80 % of 1 % DMSO treated cells; read-out: toxicity LC50. As for the experimental part: as §1
Setting [4] is: read-out: tissue culture IC50 (µM).

The IC50 is the midpoint of a concentration-inhibition curve. For the compound `Cc1c(CO)sc2nc(-c3cccnc3)nc(Nc3cc(F)c(F)c(F)c3)c12` [KP-233], the IC50 in data set [1] (setting [4]) is over 10 µM. In addition, the “toxicity LC50 (µM)” value in data set [2] was “non-toxic”.

In the case of `CNc1ccc(F)cc1Nc1nc(-c2cccnc2)nc2ccccc12` [AMR-560], the IC50 in data set [1] (setting [4]) was about 12 µM. In data set [2], the “toxicity LC50 (µM)” value is reported as “non-toxic”. For the compound `O[C@H]1CC[C@H](Nc2nc(-c3cccnc3)nc3ccccc23)CC1` [OSR-183], in data set [1] (setting [4]), the IC50 was over 25 µM. The “toxicity LC50 (µM)” value in data set [2] was “non-toxic”. On to `CN(C)c1nc(-c2cccnc2)nc2ccc(OS(C)(=O)=O)cc12` [OSR-302], for which the CC50 at 48 h in data set [3] is about 7 µM. For the compound `COc1ccc(Nc2nc(-c3cccnc3)nc3ccccc23)cn1` [KP-283], in data set [1] (setting [4]), the half-maximal inhibitory concentration (IC50) is over 10 µM. Moreover, in data set [2], the “toxicity LC50 (µM)” value is “non-toxic”. As for `Clc1ccc(Nc2nc(-c3cccnc3)nc3ccccc23)c(Cl)c1Cl` [KP-260], the IC50 in data set [1] (setting [4]) was over 10 µM. In addition, the “toxicity LC50 (µM)” value in data set [2] is given as “non-toxic”. On to `Fc1cc(Nc2nc(Nc3cc(F)c(F)c(F)c3)c3ccccc3n2)cc(F)c1F` [KP-265], for which the 50% inhibitory concentration (IC50) in data set [1] (setting [4]) is about 10 µM. The “toxicity LC50 (µM)” value in data set [2] is “non-toxic”.

As for `O=[N+]([O-])c1cnccc1Nc1nc(-c2cccnc2)nc2ccccc12` [KP-92], the IC50 in data set [1] (setting [4]) was about 8 µM. Also, the “toxicity LC50 (µM)” value in data set [2] is recorded as “non-toxic”. Turning to `O=[N+]([O-])c1ccc(Sc2nc(-c3cccnc3)nc3ccccc23)c(F)c1` [KP-76], the 50% inhibitory concentration (IC50) in data set [1] (setting [4]) is about 5 µM. For the same compound, in data set [2], the “toxicity LC50 (µM)” value is given as “non-toxic”.

On to `NC(=O)c1ccc(Nc2nc(-c3ccncc3)nc3ccccc23)cc1` [AMR-556], for which the IC50 in data set [1] (setting [4]) is over 10 µM. In data set [2], the “toxicity LC50 (µM)” value is on record as “non-toxic”. On the same counts, the results for `Fc1cc(Nc2ncnc3ccccc23)cc(F)c1F` [KP-152] are about 17 µM and “non-toxic”. Take `Fc1cccc(Nc2nc(-c3cccnc3)nc3ccccc23)c1` [KP-165]: the IC50 in data set [1] (setting [4]) is over 10 µM. The “toxicity LC50 (µM)” value in data set [2] was “non-toxic”. On the same counts, the results for `Fc1cc(Nc2cc(-c3cccnc3)nc3ccccc23)cc(F)c1F` [OSR-205] are about 10 µM and “non-toxic”. Taken in the same sequence, the figures for `Fc1ccc(Nc2nc(-c3cccnc3)nc3ccccc23)c(F)c1F` [OSR-298] were over 10 µM and “non-toxic”. Take `NNC(=O)c1ccc(Nc2nc(-c3cccnc3)nc3ccccc23)cc1` [KP-242]: in data set [1] (setting [4]), the IC50 is over 10 µM. Besides, the “toxicity LC50 (µM)” value in data set [2] is “non-toxic”.

On to `Fc1cc(Nc2nc(-c3cncc(Br)c3)nc3ccccc23)cc(F)c1F` [KP-158 (old)], for which the IC50 in data set [1] (setting [4]) was 0.5 to 1 µM. For the same compound, in data set [2], the “toxicity LC50 (µM)” value is “non-toxic”.

`COCCN(CCOC)c1nc(-c2cccnc2)nc2ccccc12` [OSR-283 HCl]: the IC50 in data set [1] (setting [4]) was over 10 µM. In data set [2], the “toxicity LC50 (µM)” value is reported as “non-toxic”. On the same counts, the results for `O=C(c1ccccc1)c1ccc(Nc2nc(-c3ccncc3)nc3ccccc23)cc1` [OSR-48] are over 25 µM and “non toxic”. Regarding `c1cncc(-c2nc(Nc3ccncn3)c3ccccc3n2)c1` [KP-111], in data set [1] (setting [4]), the IC50 is about 18 µM. Further, the “toxicity LC50 (µM)” value in data set [2] is “non-toxic”. On the same counts, the results for `CC(=O)c1ccc(Nc2nc(-c3ccncc3)nc3ccccc23)cc1` [AMR-535] are under 5 µM and “non-toxic”. Taken in the same sequence, the figures for `c1ccc(Sc2nc(-c3cccnc3)nc3ccccc23)cc1` [OSR-290] were over 10 µM and “non-toxic”. Taken in the same sequence, the figures for `CCOP(=O)(OCC)c1cc([N+](=O)[O-])ccc1Nc1nc(-c2cccnc2)nc2ccccc12` [KP-139] were over 25 µM and “non-toxic”. Turning to `Fc1cc(Nc2nc(-c3ccc(I)cc3)nc3ccccc23)cc(F)c1F` [KP-161], in data set [1] (setting [4]), the IC50 was about 10 µM. Moreover, in data set [2], the “toxicity LC50 (µM)” value is given as “non-toxic”.

`Fc1cc(Nc2nc(Cl)nc3ccccc23)cc(F)c1F` [KP-187]: in data set [1] (setting [4]), the IC50 was over 10 µM. In data set [2], the “toxicity LC50 (µM)” value is “non-toxic”.

Turning to `Cc1ccc(Nc2nc(-c3cccnc3)nc3ccccc23)cc1C(F)(F)F` [KP-278], in data set [1] (setting [4]), the IC50 was about 10 µM. The “toxicity LC50 (µM)” value in data set [2] is given as “non-toxic”. Taken in the same sequence, the figures for `Fc1cc(Nc2nc(-c3cccnc3)nc3ccccc23)c(F)c(F)c1F` [KP-98] were about 15 µM and “non-toxic”.

In the case of `CC(=O)OC[C@H]1O[C@@H](Sc2nc(-c3cccnc3)nc3ccccc23)[C@H](OC(C)=O)[C@@H](OC(C)=O)[C@@H]1OC(C)=O` [KP-119], the IC50 in data set [1] (setting [4]) was over 25 µM. Besides, in data set [2], the “toxicity LC50 (µM)” value is given as “non-toxic”. On the same counts, the results for `O=S(=O)(c1ccc(Nc2nc(-c3cccnc3)nc3ccccc23)cc1)c1nccs1` [KP-270] are over 10 µM and “non-toxic”.

Turning to `FC(F)(F)c1cccc(Nc2nc(-c3cccnc3)nc3ccccc23)c1` [OSR-198], in data set [1] (setting [4]), the IC50 is over 25 µM. The “toxicity LC50 (µM)” value in data set [2] was “non-toxic”. Taken in the same sequence, the figures for `Fc1ccc(Nc2nc(-c3cccnc3)nc3ccccc23)cc1F` [KP-271] were about 10 µM and “non-toxic”. Taken in the same sequence, the figures for `CSc1ccc(Nc2nc(-c3ccncc3)nc3ccccc23)cc1` [AMR-570] were about 10 µM and “non-toxic”. Turning to `C=Cc1ccc2nc(-c3cccnc3)nc(Nc3cc(F)c(F)c(F)c3)c2c1` [KP-130], in data set [1] (setting [4]), the IC50 is over 25 µM. For the same compound, in data set [2], the “toxicity LC50 (µM)” value is recorded as “non-toxic”. Consider `CCOC(=O)N1CCC(Nc2nc(-c3ccncc3)nc3ccccc23)CC1` [AMR-577], for which the IC50 in data set [1] (setting [4]) was over 10 µM. Further, the “toxicity LC50 (µM)” value in data set [2] is listed as “non-toxic”. On the same counts, the results for `O=[N+]([O-])c1ccc(Nc2ccnc(-c3cccnc3)n2)c(F)c1` [KP-34] are over 25 µM and “non-toxic”. For `Oc1cc(Cl)cc(Nc2nc(-c3cccnc3)nc3ccccc23)c1` [KP-251], in data set [1] (setting [4]), the IC50 is about 5 µM. Besides, in data set [2], the “toxicity LC50 (µM)” value is “non-toxic”. For the compound `CC(C)(C)Oc1nc(-c2cccnc2)nc2ccccc12` [OSR-285], the IC50 in data set [1] (setting [4]) was over 10 µM. The “toxicity LC50 (µM)” value in data set [2] is recorded as “non-toxic”. On the same counts, the results for `COc1cc2nc(Nc3cc(F)c(F)c(F)c3)nc(Nc3cc(F)c(F)c(F)c3)c2cc1OC` [KP-272] are under 5 µM and “non-toxic”. Taken in the same sequence, the figures for `Fc1c(F)c(F)c(Nc2nc(-c3cccnc3)nc3ccccc23)c(F)c1F` [KP-107] were about 7 µM and “non-toxic”.

Take `Fc1cc(Nc2nc(-c3ccccc3)nc3ccccc23)cc(F)c1F` [KP-153]: the IC50 in data set [1] (setting [4]) is 10 to 15 µM. Further, in data set [2], the “toxicity LC50 (µM)” value is reported as “non-toxic”. On the same counts, the results for `O=C(O)c1ccc(Nc2nc(-c3ccncc3)nc3ccccc23)cc1` [AMR-542] are over 10 µM and “non-toxic”.

For `CN(C)c1nc(-c2cccnc2)nc2ccc(O)cc12` [OSR-242X], the IC50 in data set [1] (Table 4, cells infected with wild type NL4.3 HIV-1, read-out: tissue culture IC50) lay within 0.5 to 1 µM. The “toxicity LC50 (µM)” value in data set [2] was “non-toxic”. Regarding `CCOC(=O)c1cccc(Nc2nc(-c3ccncc3)nc3ccccc23)c1` [AMR-541], the IC50 in data set [1] (setting [4]) was under 5 µM. In addition, the “toxicity LC50 (µM)” value in data set [2] is on record as “non-toxic”. On the same counts, the results for `CC(C)Nc1nc(-c2cccnc2)nc2ccccc12` [OSR-295] are over 10 µM and “non-toxic”.

With `c1cncc(-c2nc(N3CCOCC3)c3ccccc3n2)c1` [KP-190], the IC50 in data set [1] (setting [4]) is over 10 µM. Besides, the “toxicity LC50 (µM)” value in data set [2] is given as “non-toxic”. Turning to `Fc1cc(Nc2nc(N3CCOCC3)nc3ccccc23)cc(F)c1F` [KP-268], in data set [1] (setting [4]), the IC50 was over 10 µM. For the same compound, the “toxicity LC50 (µM)” value in data set [2] is “non-toxic”. Taken in the same sequence, the figures for `CCN(CC)c1nc(-c2cccnc2)nc2ccccc12` [KP-237] were over 10 µM and “non-toxic”. On to `COc1ccc(Nc2nc(Cl)nc3ccccc23)cn1` [KP-288], for which, in data set [1] (setting [4]), the IC50 was over 10 µM. Moreover, in data set [2], the “toxicity LC50 (µM)” value is “non-toxic”.
